The results in this text go back to patent US8367829B2, “Bi-functional pyrazolopyridine compounds” (Gilead Sciences, Inc., priority 2010, dated 2013).

SMILES strings stand for the structures.

In test [1] the target is T1, human recombinant beta-2 adrenoreceptors (Homo sapiens, UniProt P07550).
T1 construct: expressed in transfected cells; host or cells: CHO cells
As to the kind of experiment: Functional agonism of human recombinant beta-2 adrenoreceptors expressed in CHO cells (cAMP, HTRF). It is filed as cell-based. Conditions: cAMP elevation, 30 min. As for the experimental part: Functional Agonism of Human Recombinant Beta-2 Adrenoreceptors Expressed in Chinese Hamster Oocytes (CHO)
Test compounds were incubated for 30 min with CHO cells expressing the human recombinant beta-2 adrenoreceptors. Agonism of the receptor was measured by the elevation of intracellular cyclic-AMP over control levels detected using a homogeneous time resolved fluorescence (HTRF) format. Compounds were determined to be “full” or “partial” agonists based on the maximum level of cAMP accumulated compared to the control compound isoproterenol which is a full agonist in this assay system. Concentration response curves were generated for test compounds and the EC50 (molar concentration of the agonist which produced 50% of the maximal response for that compound) was determined. These assays were performed using a protocol based on the original description of the assay by Baker, J. G. (2005) Brit. J. Pharmacol.; 144:317-322.
EC50 determinations for the compounds presented above are seen in the third column of Table 1 (Beta 2 EC50).
A general note: TR-FRET usually uses a lanthanide donor and a delayed reading to cut background.

Test [2] concerns the target T1, human recombinant beta-2 adrenoreceptors. Description: Beta-2 adrenoceptor binding assay, displacement of [3H](−)CGP-12177. Conditions: CHO cells expressing human beta-2 adrenoreceptors, [3H](−)CGP-12177 0.3 nM, 120 min. As for the experimental part:
Beta-2 Adrenoceptor Binding Assay
Test compounds were incubated for 120 min with Chinese hamster oocyte (CHO) cells expressing the human recombinant beta-2 adrenoreceptors. Binding of test compounds to the beta-2 adrenoreceptors was determined by measuring the displacement of the radiolabeled ligand [^3H](−)CGP-12177 (0.3 nM) from the receptor measured by a scintillation counting. Concentration response curves were generated for test compounds and the IC50 (molar concentration of the compound which produced 50% inhibition for the maximal response for that compound) was determined. These assays were performed using a protocol based on the original description of the assay by Joseph et al., (2004) Naun.-Sch. Arch. Pharm.; 369:525-532.
IC50 determinations for the compounds presented above are seen in the second column of Table 1 (Beta 2 IC50).

Another test addresses T2, Human recombinant PDE4B2 (Homo sapiens, UniProt Q07343).
T2 construct: purchased BPS Bioscience
Description: Inhibition of PDE4B2 enzyme activity (PDE Glo Assay). The class given is biochemical. To be noted: human recombinant PDE4B2, 50 nM cAMP; read-out: PDE4 IC50. The method, then:
Inhibition of PDE4B4 Enzyme Activity
The inhibitory activity of test compounds were determined using the PDE Glo Assay (Promega, V1361). The PDE-Glo Reaction Buffer was prepared (1 mL 5× buffer+4 mL water) and 150 nM solution of test compound dissolved in the Reaction Buffer, followed by 1:3 serial dilutions into Reaction Buffer. […] Human recombinant PDE4B2 (BPS Bioscience) was added to test compound in Reaction Buffer at a concentration of 0.12 nM per reaction. The enzyme and test compound were pre-incubated together at rt for 10 min. 50 nM of the enzyme substrate cAMP was then added to initiate the enzyme reaction, with the reaction terminated after one hour. Termination Buffer (1 mL 5× termination buffer+3.9 mL water+100 μL of 100 mM IBMX (ICN Chemicals, in DMSO)), was added to each reaction well to terminate the reaction. Detection Buffer (1 mL 5×PDE-Glo Detection buffer+3.96 mL water+40 μL PKA (supplied in kit)) was added to the cAMP-enzyme-test compound mix and this secondary reaction proceeded for 20 minutes at rt. An equal volume of Kinase Glo Reagent was then added to the reaction mixture and after 10 min luminescence was measured using a luminometer (EnVision, 0.1 sec read for luminescence). Luminescence values were […] related to levels of cAMP in the reaction mixture. Data were plotted as relative light units (RLU) versus test compound concentration and the IC50 determined using GraphPad Prism 5.0, using a nonlinear curve fit in a single-site binding model.
IC50 determinations for the compounds presented above are seen in the first column of Table 1 (PDE4 IC50).

Test [3] deals with LPS-induced TNF-α release from human peripheral blood mononuclear cells (PBMC). As to the kind of experiment: Inhibition of LPS-induced TNF-α release from human PBMC. The class given is cell-based. Conditions: LPS 0.4 ng/mL, 6 h, presence or absence of ICI-118551 not given. An excerpt:
Inhibition of Lipopolysaccharide (LPS)-Induced Tumour Necrosis Factor Alpha (TNF-α) Release from Human Peripheral Blood Mononuclear Cells (PBMC)
Human whole blood was drawn from donors and cell purification initiated within two hours. Peripheral blood mononuclear cells (PBMC) were purified using a standard Ficoll gradient purification technique and aliquoted at a concentration of 100,000 cells/well in 96 well plates. Beta-2 adrenoreceptor agonists are also anti-inflammatory for some immune cells expressing the receptor and in this assay they can inhibit tumor necrosis factor-alpha (TNF-α) production. Therefore PBMC were pre-incubated for 30 min in the presence of the beta-2 adrenoreceptor antagonist ICI-118551 (3-(isopropylamino)-1-[(7-methyl-4-indanyl)oxy]butan-2-ol) (10 μM) to determine the PDE4 directed activity of test compounds, and in the absence of ICI-118551 for the combined PDE4 and beta-2 receptor directed activity. Test compounds were dissolved in DMSO and diluted in buffer (final DMSO concentration of 0.1% v/v) and were then added to the cell suspensions and pre-incubated for a further 1 h at 37° C. LPS solution was then added (0.4 ng/mL) and the cells incubated for a further 6 h. At the end of the incubation period the cell supernatants were collected and TNF-α was measured using a Procarta Cytokine Assay Kit (Affymetrix, Santa Clara, Calif.) according to the manufacturers' instructions. Data were analyzed using MiraiBio Masterplex QT v4.0 software (MasterPlex Version 1.0.1.18 Copyright 2008, Hitachi Software Engineering Co., Ltd) and used to extrapolate Mean Fluorescence Intensity (MFI) into concentrations of TNF-α and mean values from replicate wells were determined. Inhibition curves were plotted using a nonlinear curve fit employing a single-site binding model to determine the IC50 value for each test compound in the presence or absence of ICI-118551 using GraphPad Prism 5 for Windows, version 5.02 (GraphPad Software, San Diego Calif.).
EC50 determinations for the compounds presented above are seen in the fourth column of Table 1 (PBMC TNF EC50).

T1 sequence (P07550 whole entry): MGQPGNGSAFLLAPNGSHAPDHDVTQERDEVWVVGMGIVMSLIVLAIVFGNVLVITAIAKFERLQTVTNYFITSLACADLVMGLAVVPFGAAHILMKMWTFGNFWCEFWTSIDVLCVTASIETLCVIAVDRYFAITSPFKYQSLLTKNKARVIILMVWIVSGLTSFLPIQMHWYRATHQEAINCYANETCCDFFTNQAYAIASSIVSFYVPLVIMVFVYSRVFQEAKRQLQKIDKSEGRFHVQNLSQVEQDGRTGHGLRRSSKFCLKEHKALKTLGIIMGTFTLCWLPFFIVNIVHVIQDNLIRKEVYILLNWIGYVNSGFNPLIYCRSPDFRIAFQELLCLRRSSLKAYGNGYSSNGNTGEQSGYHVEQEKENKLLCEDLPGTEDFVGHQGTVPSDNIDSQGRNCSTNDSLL
T2 sequence (Q07343 1-564 isoform Q07343-2): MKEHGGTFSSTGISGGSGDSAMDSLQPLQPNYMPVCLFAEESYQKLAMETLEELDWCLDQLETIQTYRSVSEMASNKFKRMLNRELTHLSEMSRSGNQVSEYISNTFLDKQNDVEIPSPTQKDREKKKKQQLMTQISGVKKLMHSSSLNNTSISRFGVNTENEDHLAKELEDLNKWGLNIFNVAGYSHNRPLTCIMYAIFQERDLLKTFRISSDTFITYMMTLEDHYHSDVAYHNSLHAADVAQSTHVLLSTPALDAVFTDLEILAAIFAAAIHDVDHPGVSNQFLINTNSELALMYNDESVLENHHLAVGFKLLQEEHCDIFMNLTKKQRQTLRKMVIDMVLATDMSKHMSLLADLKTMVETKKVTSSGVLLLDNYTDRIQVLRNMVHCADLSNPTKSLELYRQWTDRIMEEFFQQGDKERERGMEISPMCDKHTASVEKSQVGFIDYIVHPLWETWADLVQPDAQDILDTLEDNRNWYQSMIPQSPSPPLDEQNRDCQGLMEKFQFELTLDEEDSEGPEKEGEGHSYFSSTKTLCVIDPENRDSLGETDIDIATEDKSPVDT

A word on the EC50: it is the concentration needed to bring the measured effect to its halfway point. As a reminder, the IC50 is the concentration that inhibits the measured activity by half. Take `CCc1nc2c(cnn2CC)c(NC2CCOCC2)c1CNC(=O)c1ccc(CCCCCNC[C@H](O)c2ccc(O)c3[nH]c(=O)ccc23)cc1` [Example 9, (R)—N-[[1,6-diethyl-4-[(tetrahydro-2H-pyran-4-yl)amino]-1H-pyrazolo[3,4-b]pyridin-5-yl]methyl]-4-[5-[[2-hydroxy-2-(8-hydroxy-2-oxo-1,2-dihydroquinolin-5-yl)ethyl]amino]pentyl]benzamide]: the EC50 in test [1] and in test [3] was less than 100 nM each time. In addition, the IC50 (in test [2]; on Human recombinant PDE4B2) was less than 100 nM each time.

Consider `CCc1nc2c(cnn2CC)c(NC2CCOCC2)c1CNC(=O)CCCCCCCNC[C@H](O)c1ccc(O)c2[nH]c(=O)ccc12` [Example 10, (R)—N-[[1,6-Diethyl-4-[(tetrahydro-2H-pyran-4-yl)amino]-1H-pyrazolo[3,4-b]pyridin-5-yl]methyl]-8-[[2-hydroxy-2-(8-hydroxy-2-oxo-1,2-dihydroquinolin-5-yl)ethyl]amino]octanamide], for which the EC50 in test [1] and in test [3] was less than 100 nM in each case. Besides, the IC50 in test [2] was greater than 300 nM; on Human recombinant PDE4B2 it was less than 100 nM.

As to `CCc1nc2c(cnn2CC)c(NC2CCOCC2)c1CNC(=O)Nc1ccc(C#CCCCNC[C@H](O)c2ccc(O)c3[nH]c(=O)ccc23)cc1` [Example 11], the EC50 in test [1] and in test [3] was less than 100 nM in each case. Also, the concentration for half-maximal inhibition (IC50) (in test [2]; on Human recombinant PDE4B2) was less than 100 nM in each case.

In the case of `CCc1nc2c(cnn2CC)c(NC2CCOCC2)c1CNC(=O)Nc1ccc(CCCCCNC[C@H](O)c2ccc(O)c3[nH]c(=O)ccc23)cc1` [Example 12, (R)-1-((1,6-diethyl-4-((tetrahydro-2H-pyran-4-yl)amino)-1H-pyrazolo[3,4-b]pyridin-5-yl)methyl)-3-(4-(5-((2-hydroxy-2-(8-hydroxy-2-oxo-1,2-dihydroquinolin-5-yl)ethyl)amino)pentyl)phenyl)urea], the EC50 in test [1] and in test [3] was less than 100 nM each time. In addition, the concentration for half-maximal inhibition (IC50) (in test [2]; at Human recombinant PDE4B2) was less than 100 nM each time.
